Measured values as given in patent publication US5770688A, “Method and composition for the treatment of mammalian HIV infection” (GSF-Forschungszentrum fur Umwelt und Gesundheit GmbH, priority 1989, dated 1998).
“Also recorded” adds a separate entry of the source.

Assay: tolerability and clinical investigation of FIV infected cats
Assay type: in vivo
Text: In the following series of experiments, two naturally FIV infected cats (M and G) were used. These particular cats were kept for more than one year under constant observation in the Clinic for Internal Medicine at the Veterinary School in Munich, Germany before the onset of melittin (Seq. ID NO:1) treatment. In each cat, FIV infection had been confirmed by detecting an antibody ELISA. In this regard, a test marketed under the tradename PetChek® and which is available from the same company in Portland, Maine was employed. As best seen in FIG. 53. The antibody titer against FIV in both cats was approximately 1:50. As a general matter, the overall physical condition of both cats was good during the observation period. […]
During the experiment it was determined that detectable blood serum levels of melittin (Seq. ID NO:1) of about 5 ng/ml could be detected following an injection of melittin equal to […] a few minutes after injection. […] In vitro data has shown that melittin, after this time interval, is found within the cells where it can be detected in tact for more than 48 hours. […] The quantitative effect of melittin on FIV replication was determined quantitatively by utilizing FIV-PCR employing nested primers from the gag region. Quantification was based upon the determination of amplified product in identical samples which have been amplified after different cycle times. […]

Substance: Gly-Ile-Gly-Ala-Val-Leu-Lys-Val-Leu-Thr-Thr-Gly-Leu-Pro-Ala-Leu-Ile-Ser-Trp-Ile-Lys-Arg-Lys-Arg-Gln-Gln-Amide [melittin]
- tolerability / adverse reactions (50 to 500 mg/kg s.c. twice weekly, eight weeks): appeared to tolerate the numerous injections without any clinically noticeable negative reactions; also recorded: no adverse reaction or clinical abnormalities could be observed in either animal
- pneumonitis (cat M): improved during the melittin treatment
